Results: patent publication US20230093099A1, “COMPOUNDS AND METHODS OF TREATING CANCERS” (CULLGEN (SHANGHAI), INC., priority 2019, published 2023)
Where two headings read alike, the source gives them in different places.

Columns and labels:
Format in all cases: cell-based
RS4;11 cells = assay: Cell viability assay (CellTiter-Glo) in RS4;11 cells; details: for IC50: Homo sapiens, 72 h; for cell viability inhibition in combination with pomalidomide: RS4;11, 3 days, pomalidomide at 10 μM (FIG. 4)
Method in brief: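 RS4;11 cells seeded at 5000 per well, exposed for 3 days to 8- or 12-point 3-fold serial dilutions. Viability read by CellTiter-Glo luminescence; IC50 fitted by nonlinear least-squares regression.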

MOLT-4 cells = assay: Cell viability assay (CellTiter-Glo) in MOLT-4 cells; details: Homo sapiens, 72 h, MOLT-4, T-ALL, 3 days
Description: (§1) MV4;11, RS4;11, Kasumi-1, HEL and other cells were treated with NVP-BSK805, TG101209 or selected degraders for 3 days at indicated concentrations following a 3-fold serial dilution.
(§2) HEL, RS4;11, MV4;11, Kasumi-1 and other cells were cultured at 37° C. with 5% CO2 in RPMI 1640 or DMEM Medium supplemented with 10% fetal bovine serum. Cells were authenticated using the short tandem repeat (STR) assays. Mycoplasma test results were negative.
(§3) Cells were seeded at a density of 5000 cells per well in 96-well assay plates and treated with test compounds following a 8-point or 12-point 3-fold serial dilution. Three days later, cell viability was determined using the CellTiter-Glo assay kit according to the manufacturer's instructions. The dose-response curves were determined and IC50 values were calculated using the GraphPad Prism software following a nonlinear regression (least squares fit) method.

Jurkat cells = assay: Cell viability assay (CellTiter-Glo) in Jurkat cells; details: Homo sapiens, 72 h, T-ALL, 3 days
Description: as §1, §2, §3

MV4;11 cells = assay: Cell viability assay (CellTiter-Glo) in MV4;11 cells; details: for IC50: Homo sapiens, 72 h, MV4;11, AML, cell viability, 3 days; for cell viability inhibition in combination with pomalidomide: MV4;11, 3 days, pomalidomide at 10 μM (FIG. 4)
Description: as §1, §2, §3

AMO-1 cells = assay: Cell viability assay (CellTiter-Glo) in AMO-1 cells; details: Homo sapiens, AMO1, 72 h, AMO-1, Multiple Myeloma, 3 days
Description: as §1, §2, §3

MEG-01 cells = assay: Cell viability assay (CellTiter-Glo) in MEG-01 cells; details: Homo sapiens, 72 h, MEG-01, CML, 3 days
Description: as §1, §2, §3

WSU-DLCL2 cells = assay: Cell viability assay (CellTiter-Glo) in WSU-DLCL2 cells; details: Homo sapiens, WSUDLCL2, 72 h, WSU-DLCL2, DLBCL, 3 days
Description: as §1, §2, §3

JAK2-V617F = target: T1, JAK2-V617F (Homo sapiens, UniProt O60674, V617F); assay: Immunoblot of JAK2 protein level in HEL cells; details: 24 hours; for JAK2 protein level: HEL cells, immunoblot (FIG. 1)
T1 construct: immunoblot of JAK1/2/3 proteins expressed in HEL cells; endogenous in cells; host or cells: HEL cells
Description: HEL cells harboring JAK2-V617F mutation were treated with compounds at indicated concentrations for 24 hours. […] The concentrations required to reduce JAK2-V617 by 50% (DC50) were below 60 nM for compound JA-213.
as §2
(§4) Rabbit anti-JAK1 antibody (3344S), anti-JAK2 antibody (3230S), anti-JAK3 antibody (8827S), anti-TYK2 antibody (14193S), anti-FLT3 antibody (3462S), anti-RET antibody (14556S), anti-phospho-STAT3 (Tyr705) antibody (9145S) and anti-phospho-STAT5 (Tyr694) antibody (4322S) were purchased from Cell Signaling Technology. Rabbit anti-GSPT1 antibody (ab126090) was purchased from Abcam. HRP-conjugated anti-α-tubulin antibody was produced in house. Media and other cell culture reagents were purchased from Thermo Fisher. The CellTiter-Glo Luminescent Assay kit was purchased from Promega.
(§5) Cultured cells were washed with cold PBS once and lysed in cold RIPA buffer supplemented with protease inhibitors and phosphatase inhibitors (Beyotime Biotechnology). The solutions were then incubated at 4° C. for 30 minutes with gentle agitation to fully lyse cells. Cell lysates were centrifuged at 13,000 rpm for 10 minutes at 4° C. and pellets were discarded. Total protein concentrations in the lysates were determined by BCA assays (Beyotime Biotechnology). Cell lysates were mixed with Laemmli loading buffer to 1× and heated at 99° C. for 5 min. Proteins were resolved on SDS-PAGE and visualized by chemiluminescence. Images were taken by a ChemiDoc MP Imaging system (Bio-Rad). Protein bands were quantitated using the accompanied software provided by Bio-Rad.

p-STAT5 = assay: Immunoblot of p-STAT5 (downstream signaling) in HEL cells; details: immunoblot (FIG. 1)
Description: To confirm JA-189 and JA-213 are true JAK degraders, HEL cell were treated with these two compounds at various compounds concentrations.
as §2, §4
Cultured cells were washed with cold PBS once and lysed in cold RIPA buffer supplemented with protease inhibitors and phosphatase inhibitors (Beyotime Biotechnology). […] Total protein concentrations in the lysates were determined by BCA assays (Beyotime Biotechnology). […] Protein bands were quantitated using the accompanied software provided by Bio-Rad.

GSPT1 = target: T2, GSPT1 (Homo sapiens, UniProt P15170); assay: Immunoblot of GSPT1 protein level in RS4;11 cells; details: 16 hours; for GSPT1 protein level: immunoblot (FIG. 5)
T2 construct: immunoblot of GSPT1 and tubulin expressed in RS4:11 cells; endogenous in cells; host or cells: RS4;11 cells
Description: RS4;11 cells were treated with compounds at indicated concentrations for 16 hours. […] The concentrations required to reduce GSPT1 by 50% (DC50) were below 2 nM for compound JA-189 and 10 nM JA213.
as §2, §4, §5

[1] = RS4;11 ALL cells treated for three days, read-out: cell viability inhibition IC50
[2] = RS4;11 cells, cell viability, 3 days, CellTiter-Glo, read-out: IC50

T1 sequence (O60674 whole entry V617F): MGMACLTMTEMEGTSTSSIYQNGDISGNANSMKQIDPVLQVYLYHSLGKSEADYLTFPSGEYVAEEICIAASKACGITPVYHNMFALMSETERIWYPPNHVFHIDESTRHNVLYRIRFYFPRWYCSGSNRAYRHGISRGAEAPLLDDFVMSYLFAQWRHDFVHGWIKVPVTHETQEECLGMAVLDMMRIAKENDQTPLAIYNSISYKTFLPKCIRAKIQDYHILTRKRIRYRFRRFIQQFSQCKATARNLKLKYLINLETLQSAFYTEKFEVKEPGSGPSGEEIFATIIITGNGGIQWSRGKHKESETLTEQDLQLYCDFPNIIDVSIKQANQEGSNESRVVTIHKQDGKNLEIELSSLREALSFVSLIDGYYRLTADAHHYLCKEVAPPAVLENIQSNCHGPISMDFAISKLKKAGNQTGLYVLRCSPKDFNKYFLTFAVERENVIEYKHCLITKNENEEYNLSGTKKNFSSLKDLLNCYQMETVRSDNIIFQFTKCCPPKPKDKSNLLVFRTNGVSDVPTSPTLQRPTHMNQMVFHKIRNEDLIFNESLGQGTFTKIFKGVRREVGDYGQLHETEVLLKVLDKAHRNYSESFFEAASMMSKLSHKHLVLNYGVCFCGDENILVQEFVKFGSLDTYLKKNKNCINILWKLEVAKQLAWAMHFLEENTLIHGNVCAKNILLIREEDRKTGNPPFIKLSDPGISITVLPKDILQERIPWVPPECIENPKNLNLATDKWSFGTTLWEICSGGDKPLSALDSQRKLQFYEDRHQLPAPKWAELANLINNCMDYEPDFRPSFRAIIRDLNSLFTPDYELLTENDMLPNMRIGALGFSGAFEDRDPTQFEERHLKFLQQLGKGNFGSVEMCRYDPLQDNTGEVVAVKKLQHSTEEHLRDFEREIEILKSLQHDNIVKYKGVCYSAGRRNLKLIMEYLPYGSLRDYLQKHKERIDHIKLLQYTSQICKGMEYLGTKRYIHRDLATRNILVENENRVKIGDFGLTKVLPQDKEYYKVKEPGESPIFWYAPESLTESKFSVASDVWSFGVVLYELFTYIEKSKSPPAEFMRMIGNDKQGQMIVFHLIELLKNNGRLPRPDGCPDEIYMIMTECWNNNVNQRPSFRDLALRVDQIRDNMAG
T2 sequence (P15170 whole entry): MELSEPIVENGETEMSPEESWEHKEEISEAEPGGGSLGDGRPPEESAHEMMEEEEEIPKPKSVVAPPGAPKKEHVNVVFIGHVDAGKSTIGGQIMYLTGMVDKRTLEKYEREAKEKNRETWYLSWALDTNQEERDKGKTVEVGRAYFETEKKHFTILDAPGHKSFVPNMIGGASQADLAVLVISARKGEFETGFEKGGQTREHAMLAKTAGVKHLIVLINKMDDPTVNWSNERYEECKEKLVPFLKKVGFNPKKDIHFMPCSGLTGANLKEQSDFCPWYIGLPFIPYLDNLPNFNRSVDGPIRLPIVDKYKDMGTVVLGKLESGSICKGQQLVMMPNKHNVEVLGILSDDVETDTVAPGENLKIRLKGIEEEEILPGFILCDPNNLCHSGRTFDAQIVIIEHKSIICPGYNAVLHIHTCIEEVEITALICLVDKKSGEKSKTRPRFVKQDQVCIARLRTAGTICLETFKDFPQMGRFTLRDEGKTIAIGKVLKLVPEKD

Row | DC50 (JAK2-V617F; HEL cells harboring JAK2-V617F, immunoblot, read-out: concentration required to reduce JAK2-V617 by 50% (DC50)) [nM] | SMILES | IC50 (RS4;11 cells; [1]) [nM] | IC50 (RS4;11 cells; [2]) [nM] | cell viability inhibition in combination with pomalidomide (RS4;11 cells) | IC50 (MOLT-4 cells) [nM] | IC50 (Jurkat cells) [nM] | IC50 (MV4;11 cells) [nM] | cell viability inhibition in combination with pomalidomide (MV4;11 cells) | IC50 (AMO-1 cells) [nM] | IC50 (MEG-01 cells) [nM] | IC50 (WSU-DLCL2 cells) [nM] | JAK2 protein level (JAK2-V617F) | down stream signaling, p-STAT5 band (p-STAT5) | GSPT1 protein level (GSPT1) | DC50 (GSPT1; immunoblot, read-out: concentration required to reduce GSPT1 by 50% (DC50)) [nM]
1 |  | O=C1CCC(N2C(=O)c3ccc(NCCCCCC(=O)N4CCC(n5cc(-c6cnc7cccc(-c8cc(F)c(CN9CCOCC9)c(F)c8)c7n6)cn5)CC4)cc3C2=O)C(=O)N1 (stereo not shown) [JA-189, 5-((6-(4-(4-(8-(3,5-difluoro-4-(morpholinomethyl)phenyl)quinoxalin-2-yl)-1H-pyrazol-1-yl)piperidin-1-yl)-6-oxohexyl)amino)-2-(2,6-dioxopiperidin-3-yl)isoindoline-1,3-dione] | < 100 | 2.03 | greatly reduce the potencies of the degraders | 6.36 | 34.2 | 7.93 | greatly reduce the potencies of the degraders | 612 | 89.2 | 106 | able to reduce JAK1, JAK2 and JAK3 protein levels | weaker bands of p-STAT3 and p-STAT5 | induced degradation of GSPT1 in a dose dependent manner | < 2
2 | < 60 | CS(=O)(=O)c1ccc(-c2cccc3nc(Nc4ccc(N5CCN(CC(=O)NCCCCCCCCNc6ccc7c(c6)C(=O)N(C6CCC(=O)NC6=O)C7=O)CC5)cc4)nn23)cc1 (stereo not shown) [JA-213] | < 100 | 8.45 | greatly reduce the potencies of the degraders | 16.5 | 62.7 | 19.6 | greatly reduce the potencies of the degraders | 722 | 74 | 168 | able to reduce JAK1, JAK2 and JAK3 protein levels | weaker bands of p-STAT3 and p-STAT5 | induced degradation of GSPT1 in a dose dependent manner | 
